The text below walks through data of patent US10154992B2, “Compounds and methods for treating HIV infection” (THE REGENTS OF THE UNIVERSITY OF CALIFORNIA, priority 2016, dated 2018).

The target in series [1] is T1, Rev-RRE IIB interaction (Human immunodeficiency virus type 1 group M subtype B, UniProt P04608+P04618).
T1 construct: with a fusion to HIV Rev (residues 3-70) was generated; expressed in transfected cells
In kind it is cell-based, HIV. The protocol:
A library of approximately 4500 carboxamide-containing compounds was assembled and tested in the reporter cell line at 30 μM. Reporter cells were plated in a white 96-well plate and compounds were added to the cells using a Biomek FX robotic liquid handler (Beckman Coulter). The cells were incubated with the compound for 48 hours then assayed for luciferase activity (Promega Bright Glo). The cytotoxicity of each compound was determined in parallel via MTT-based cell viability assays.
Cells were counted and plated into white 384-well or 96-well cell-culture treated assay plates and compounds were added. After 48 hours, the cells were prepared for luminescence assays that were performed on a plate reader (Tecan Evolution or MD Analyst). The cytotoxicity of each compound was determined in parallel via MTT-based cell viability assays.
Tat hybrid reporter assay. […] Previously characterized thienopyridines and diaminoacridine were used as controls. Cells were counted and plated into white 384-well cell-culture treated assay plates and compounds were added. After 48 hours, the cells were prepared for lumincescence assays that were performed on a plate reader (Tecan Evolution or MD Analyst). The cytotoxicity of each compound was determined in parallel via MTT-based cell viability assays.
The RRE IIB-Rev screening cell line was plated in 384-well assay plates and compounds were added to the cells to a final concentration of 30 μM. Cells were prepared and assayed for luciferase activity. […] In parallel, MTT cell viability assays were performed to assess the toxicity of compounds and minimize the level of false positives.

Series [2] relates to Rev-RRE IIB interaction. To be noted: in vitro.
From the text: To further validate the hits, we used an electrophoretic mobility shift assay (EMSA) to evaluate which of the three hit scaffolds were capable of disrupting the Rev-RRE IIB interaction in vitro.
Series [3] concerns PBMC. Nature of the series: MTT toxicity in the PBMC replication assay. Particulars: PBMC experiment; read-out: TC50 by MTT assay. In kind it is cell-based, Human. The text has this: Results of this experiment are shown in FIG. 9 where the replication and toxicity curves for isolate 93BR021 (CCR5-tropic, group M, subtype B) are shown.
For series [4], the system named is HIV RRE (Rev-dependent) reporter. Nature of the series: Rev reporter assay in 293T cells, p24 ELISA. In kind it is cell-based. Particulars: Human immunodeficiency virus 1, HEK-293T, Table 2. How it is done: Rev reporter assay. In the Rev reporter assay, 293T cells were transfected with an HIV RRE (Rev-dependent) reporter plus a pSV2 Rev expression plasmid (Hope, T. J., et al. (1990) Proc. Natl. Acad. Sci. USA 87, 7787-7791). Compounds were incubated with the cells for 48 hours and reporter activity was assessed by p24 ELISA. Leptomycin B, an inhibitor of the Crm1 pathway that inhibits Rev-dependent export, was included as a control. The cytotoxicity of each compound was determined in parallel via MTT-based cell viability assays.

The test system of series [5] is HIV-1 isolate NL4-3. Nature of the series: Virus spreading / replication assay in Jurkat cells, p24 ELISA. It counts as cell-based. Particulars: Human immunodeficiency virus 1, NL43, Jurkat; Table 2; NL4-3; read-out: Jurkat HIV-1 replication assay. The protocol:
Virus spreading assay. Jurkat (E6-1) cells (NIH AIDS Reagent Program) were cultured in RPMI media supplemented with 25 mM HEPES pH 7.4, 10% heat-inactivated fetal calf serum (Hyclone, Waltham Mass.), and 1% penicillin/streptomycin. 2.5×10^5 Jurkat cells were inoculated with 250 pg p24 in 250 μl media in a 96-well flat bottom polystyrene cell culture microplate. Input virus was removed after 18 hours via washing cells phosphate-buffered saline (PBS). Cells were resuspended in 250 μl of media containing compounds at the described concentrations. Cells were incubated at 37° C., 5% CO2 and supernatant samples were removed every 48 hours and replaced with fresh media containing the compounds. Viral replication was quantified using ELISA to quantify p24 viral capsid protein in the culture supernatant. Mouse monoclonal and rabbit polyclonal α-p24 antibodies used in the ELISA were obtained from the NIH AIDS Reagent Program. Toxicity was monitored using the MTT cell viability assay (Mosmann, T. (1983). J Immunol Methods 65, 55-63).

Series [6] concerns HIV-1 provirus in U1 cells. Nature of the series: U1 activation (latency) assay, p24 ELISA. It counts as cell-based. Put shortly: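 PHA-activated U1 cells (latent integrated HIV-1 provirus, 250,000/well) treated with compound at final 1 to 10,000 nM for 3 days; virus production measured by p24 ELISA of cell-free supernatant. Cell viability assessed by MTT in parallel cultures.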

The nature of series [7]: Human liver microsome stability. In kind it is in vitro ADME. Particulars: human liver microsomes; read-out: HLM T1/2. The text has this: The more lipophilic analogs 4a and 4e also appear more prone to oxidative metabolism in the presence of human liver microsomes. This is perhaps unsurprising given the presence of methoxyphenyl (4a) and benzylic methylene (4e) functions, both potential sites of oxidative metabolism.

Series [8] deals with T2, HIV TAR Luciferase reporter with HIV Tat 1-72 (Human immunodeficiency virus type 1 group M subtype B, UniProt P04608).
T2 construct: 5 ng of the HIV Tat 1-72 expression construct; expressed in transfected cells; host or cells: 293T, transient transfection
Nature of the series: Tat-hybrid transient reporter assay in 293T cells, TAR reporter. Particulars: 100 nM compound; 293T transient transfection. In kind it is cell-based. How it is done: (§1) Testing the specificity of the thienopyridine compounds using the Tat-hybrid reporter system.
(§2) A 96 well plate was seeded with 10,000 293T cells. We transfected each well with 10 ng of the HIV TAR Luciferase reporter and 5 ng of the HIV Tat 1-72 expression construct or 10 ng of the HIV RRE IIB Luciferase reporter and 5 ng of the HIV Tat (1-48)-Rev 3-70 expression construct, and with 2 ng of a CMV Renilla luciferase control. Compound 4a was added to a final concentration of 3.16, 10, 31.6, and 100 nM. Each condition was performed in quadruplet. Note, it was necessary to use transient transfection assays rather than stable cell lines in order to compare the two reporter systems, although the level of inhibition conferred by the compounds in the transient assays was lower than in the cell lines. The cells were incubated for 48 hours and dual luciferase assays were performed according to the manufacturers protocol (Promega). Reporter activity was normalized against the Renilla control.

The nature of series [9]: Aqueous solubility pH 7.4. It counts as physicochemical. To be noted: aqueous solution, pH 7.4, pH 7.4, aqueous buffer. The text has this:
(§3) We next evaluated analogs 2b, 2f, 4a, and 4e in a panel of standard in vitro ADME assays to assess drug-like properties and the potential for efficacy in animals.

A short description of series [10]: Caco-2 permeability. In kind it is in vitro ADME. Particulars: human.
From the text: as §3

In series [11] the target is T3, HIV RRE IIB Luciferase reporter with HIV Tat (1-48)-Rev 3-70 (Human immunodeficiency virus type 1 group M subtype B, UniProt P04608+P04618).
T3 construct: HIV Tat (1-48)-Rev 3-70 expression construct; expressed in transfected cells; host or cells: 293T, transient transfection
Nature of the series: Tat-hybrid transient reporter assay in 293T cells, RRE IIB reporter. In kind it is cell-based. To be noted: 100 nM compound; 293T transient transfection. How it is done:
as §1, §2

In series [12] the test system is Vpu-dependent degradation of Rev. Nature of the series: Vpu-dependent degradation of Rev, western blot in transfected 293T cells. To be noted: co-transfection with 100 ng Vpu expression plasmid. In kind it is cell-based, HIV. How it is done: Vpu is a regulator of Rev. In this experiment, Rev was expressed in the presence or absence of Vpu and levels of both proteins were measured by western blot. Flag tagged Rev and either Flag tagged Vpu or Flag tagged GFP were transfected to 293T cells.
Next we tested the Vpu-dependent degradation of Rev with the proteasome inhibitor MG132.

Series [13] concerns U1 cells. Nature of the series: MTT cell viability in parallel with the U1 assay. In kind it is cell-based. To be noted: Table 6; read-out: U1 TC50. How it is done: U1 activation assay. U1 cells obtained from the AIDS Research and Reference Reagent Program were maintained under standard culture conditions in RPMI 1640 supplemented with 10% fetal bovine serum (heat inactivated), 2 mM L-glutamine, 100U/mL penicillin and 100 μg/mL streptomycin. U1 cells contain an integrated copy of a phorbol ester inducible HIV-1 provirus and addition of phytohemagglutinin (PHA) to the cell culture was used to induce virus production. On the day of the assay, the U1 cells were activated with PHA and 250,000 cells were plated in 96-well plates. Test compounds were diluted in media and applied to the cells at final concentrations from 1 to 10,000 nM. Cultures were incubated for 3 days and supernatants harvested. Cell-free virus production was measured by p24 ELISA on culture supernatant. Compound toxicity was determined by MTT cell-viability assay in parallel assays.

Series [14] deals with Tat-hybrid reporter cell lines (HeLa). Nature of the series: MTT cell viability run in parallel with the Tat-hybrid assay. In kind it is cell-based. Particulars: Table 6; at 50,000 nM. A digest of the protocol: (§4)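 HeLa reporter lines (Tat-hybrid) treated with compound for 48 hours, then luciferase luminescence measured. Cytotoxicity assessed in parallel by MTT viability; thienopyridines and diaminoacridine served as controls.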

Assay in series [15]: as above
In kind it is cell-based. To be noted: human, Tat-hybrid reporter cell lines (HeLa); Table 6; second 'EC50' entry of the cell, values D/E. Put shortly: as §4

Each structure is given as a SMILES string. Values after ≈ are worked out from the molar mass of the structure shown. Like-named read-outs stand apart in the source and are kept apart here. Where a SMILES comes first, the peptide text is derived from it. The star is where a group is joined. Cbz = O=C(OCc1ccccc1)* Bounds are passed on as bounds.

T1 sequence (P04608 whole entry, looked up, the tested form may be a part): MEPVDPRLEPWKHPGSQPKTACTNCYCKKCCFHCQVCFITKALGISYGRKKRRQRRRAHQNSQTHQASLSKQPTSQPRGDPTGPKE
T1 sequence (P04618 whole entry, looked up, the tested form may be a part): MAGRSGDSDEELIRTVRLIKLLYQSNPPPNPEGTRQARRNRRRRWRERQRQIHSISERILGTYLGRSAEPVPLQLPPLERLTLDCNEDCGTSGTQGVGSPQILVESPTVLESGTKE
T2 sequence (P04608 1-72): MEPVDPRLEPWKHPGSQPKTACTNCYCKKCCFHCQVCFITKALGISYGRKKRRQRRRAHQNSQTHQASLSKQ
T3 sequence (P04608 whole entry, looked up): as the sequence (P04608 whole entry, looked up, the tested form may be a part) above
T3 sequence (P04618 whole entry, looked up): as the sequence (P04618 whole entry, looked up, the tested form may be a part) above

In the case of `Nc1ccc2cc3ccc(N)cc3nc2c1` [3,6 diaminoacridine, reference compound], the “activity in the Tat-hybrid reporter assay” value in series [1] was “inhibits expression of the reporter”. For the same molecule, the “inhibition of the Rev-RRE interaction by EMSA” value in series [2] was “inhibition of Rev-RRE formation is observed”.
`Cc1cn([C@H]2C[C@H](N=[N+]=[N-])[C@@H](CO)O2)c(=O)[nH]c1=O` [AZT]: in series [3], the CC50 was below 40000 nM.
As for `COc1ccc(-c2cncc3sc(C(N)=O)cc23)cc1` [Compound 4a, 4-(4-methoxyphenyl)thieno[2,3-c]pyridine-2-carboxamide], in [4], the EC50 fell in the range of 100 to 500 nM. Besides, in [1], the “activity in the Tat-hybrid reporter assay” value is on record as “low-nM potency”. For the same molecule, the IC50 is below 100 nM in series [5] and below 100 nM in [6] (Human immunodeficiency virus 1, Table 2, read-out: U1 cell IC50). Moreover, the “potency in the U1 assay” value in [6] is on record as “low-nM potency”. Also, the half-life in [7] was 8 min. Further, the “expression of the HIV TAR reporter” value in series [8] was “not similarly inhibited”. In series [9], this molecule yielded a solubility of 0.44 µM (≈ 0.125 µg/mL). The molecule also had a Papp in [10] of 59.4 ×10⁻⁶ cm/s. In addition, the “expression of the HIV RRE IIb reporter” value in [11] was “significantly inhibited”.
Regarding `CC(C)C[C@@H](C=O)NC(=O)[C@H](CC(C)C)NC(=O)[C@H](CC(C)C)NC(=O)OCc1ccccc1` [MG132] (Cbz-Leu-Leu-Leu-aldehyde), the “effect on Vpu-dependent degradation of Rev” value in series [12] was “blocks Vpu-dependent degradation of Rev”.
On to `CN(C)c1ccnc2sc(C(N)=O)c(N)c12` [drawing 241], for which the IC50 in series [6] (Table 6, read-out: U1 IC50) is above 500 nM. Further, the CC50 in series [13] was above 40000 nM. Further, the “Tat hybrid cell viability at 50,000 nM” value in [14] is listed as “Y (Y = 30-60%)”. Moreover, in series [15], the EC50 at 48 h is above 40000 nM.
